Reference: US20100249071A1, “Modulators of S1P and Methods of Making And Using” (Exelixis, Inc., priority 2009, published 2010)
Read-outs that look alike come from different tables or passages of the source.

Key:
[1] = molecular target: T1, hS1P1R (hEdg1) membrane protein (Homo sapiens, UniProt P21453); assay: hS1P1R GTPγS binding assay (Assay 3a); format: biochemical
T1 construct: purchased Lonza
Procedure: Assay 3a: The hS1P1R GTPγS binding assay was carried out at room temperature in 96 well non-binding surface assay plates. The reaction in each well contained 4 μg hS1P1R (hEdg1) membrane protein (Lonza), 30 μM GDP, 0.1 nM [^35S]GTPγS, 0.25% fatty acid free BSA, and serially diluted hS1P1R agonist compound in 200 μL assay buffer (25 mM Tris-HCl PH 7.9, 100 mM NaCl, 3 mM MgCl2, and 0.2 mM EGTA). After one hour of incubation, 0.9 mg of WGA (Wheat Germ Agglutinin) SPA beads in 50 μL of assay buffer was added to each well. The SPA beads were spun down after an additional one hour incubation. The radioactivity of the bound GTPγS was counted by reading the assay plate using a MicroBeta.

S1P1 = molecular target: T2, S1P1 (Homo sapiens, UniProt P21453); assay: Tango β-arrestin recruitment assay in U2OS cells (Assay 2b); format: cell-based
T2 construct: host or cells: U2OS
Text: (§1) For the Tango™ β-arrestin recruitment assay, the cytoplasmic C-terminus of S1P1 was tethered to the tTA transcriptional activator with a linker that contains a cleavage site for the N1a protease from tobacco etch virus (TEV protease). The C-terminus of the human β-arrestin2 protein was fused to TEV protease. Binding of an agonist recruits the βl -arrestin-TEV fusion protein to the receptor resulting in cleavage of the linker and released of tTA to enter the nucleus and subsequently activated a tTA-dependent luciferase reporter gene.
Assay 2b: Alternatively, U2OS cells expressing the reporter gene and S1P1 (Invitrogen) were added to the wells of a 384-well white opaque bottom assay plate (PerkinElmer) at […]. The cells were serum starved for 48 h in Freestyle medium (Invitrogen). Test compounds were tested at maximum concentrations of 1 μM for the agonist assay. Compounds were diluted in DMSO (10 concentration points, 3-fold each) and added to the assay plate at a 1% final DMSO concentration. The efficacy control was 1 μM S1P (Avanti). For each compound, there were duplicate assay plates and each assay plate had duplicate wells per concentration point. The plate was incubated overnight at 37° C. The GeneBLAzer β-lactamase assay reagent (Invitrogen) was added and the plates were incubated for an additional 2 h at room temperature. Fluorescence was measured using an EnVision plate reader (PerkinElmer, Waltham, Mass.) at an excitation wavelength of 409 nm and emission wavelengths of 460 nm and 530 nm. The emission intensity at each wavelength was background subtracted against wells containing medium only and the F460 nm/F530 nm ratio determined for each concentration of the test compounds. Percent activity was calculated as [(test compound ratio−DMSO ratio)/(positive control ratio−DMSO ratio)*100], where the positive control and DMSO ratios are from cells incubated with the efficacy control 1 μM S1P and 1% DMSO, respectively. The percent activities were plotted against compound concentration to determine EC50 using XLFit (IDBS).

S1P3 = molecular target: T3, S1P3 (Homo sapiens, UniProt Q99500); assay: S1P3 Tango β-arrestin recruitment assay in HEK293 cells (Assay 5); format: cell-based
T3 construct: host or cells: HEK293 (transient transfection)
Text: as §1
Assay 2a: Frozen HEK293 cells transiently transfected with receptor cDNAs for S1P1 (Invitrogen) are thawed and suspended in 10 mL of Pro293a-CDM culture medium (Invitrogen) supplemented with 4 mM L-Glutamine (Invitrogen), 1× Pen/Strep (100 units/mL penicillin and 100 μg/mL streptomycin, Invitrogen) and 0.1% fatty acid free BSA (Sigma-Aldrich). Cells are added to the wells of a 384-well white opaque bottom assay plate (PerkinElmer) at 3,000-6,000 cells per well and the plate is incubated for approximately 4 h in a 37° C. incubator. Test compounds are tested at maximum concentrations of 10 μM for the agonist assays. Compounds are diluted in DMSO (10 concentration points, 3-fold each) and added to the assay plate at a 1% final DMSO concentration. For each compound, there are duplicate assay plates and each assay plate has duplicate wells per concentration point. The plate is incubated at 37° C. for 30 min. The efficacy control is 5 μM S1P (Avanti). Following agonist addition, the assay plates are incubated in a 37° C. incubator for 16-18 h. Luciferase assay reagent is added and luminescence measured in an EnVision plate reader (PerkinElmer). To determine agonist activity, percent activity is calculated as [(test compound−background)/(positive control−background)*100], where background is the luminescence of the DMSO alone control and the positive control is the luminescence from cells incubated with the efficacy control 5 μM S1P. The percent activities are plotted against compound concentration to determine EC50 using XLFit (IDBS).
This assay was conducted using the procedures described in Assay 2a, replacing S1P1 with S1P3.

[2] = molecular target: T4, hS1PR5 (hEdg8) membrane protein (Homo sapiens, UniProt Q9H228); assay: hS1P5R GTPγS binding assay (Assay 4); format: biochemical
T4 construct: expressed in transfected cells; host or cells: CHO
Procedure: The hS1PR5 GTPγS binding assay was carried out at room temperature in 96-well non-binding surface assay plates. The reaction in each well contained 5 μg hS1PR5 (hEdg8) membrane protein from CHO cells expressing hS1PR5, 30 μM GDP, 0.1 nM [^35S]GTPγS, 0.25% fatty acid free BSA, and serially-diluted Compound of the Invention in 200 μL assay buffer (25 mM Tris-HCl PH 7.9, 100 mM NaCl, 3 mM MgCl2, and 0.2 mM EGTA). After one hour of incubation, 0.9 mg of WGA (Wheat Germ Agglutinin) SPA beads in 50 μL of assay buffer was added to each well. The SPA beads were spun down after an additional one hour incubation. The radioactivity of the bound GTPγS was counted by reading the assay plate using a MicroBeta.

T1 sequence (P21453 whole entry): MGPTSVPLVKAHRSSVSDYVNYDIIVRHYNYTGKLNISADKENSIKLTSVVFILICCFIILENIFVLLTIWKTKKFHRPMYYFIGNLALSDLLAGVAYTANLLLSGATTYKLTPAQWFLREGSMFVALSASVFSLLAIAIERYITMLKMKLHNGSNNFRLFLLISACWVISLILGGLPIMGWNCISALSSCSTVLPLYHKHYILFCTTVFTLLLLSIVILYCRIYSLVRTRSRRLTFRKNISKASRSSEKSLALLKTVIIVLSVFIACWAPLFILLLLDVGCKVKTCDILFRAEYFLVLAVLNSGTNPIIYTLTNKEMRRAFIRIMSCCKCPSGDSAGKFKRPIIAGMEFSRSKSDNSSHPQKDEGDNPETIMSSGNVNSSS
T4 sequence (Q9H228 whole entry): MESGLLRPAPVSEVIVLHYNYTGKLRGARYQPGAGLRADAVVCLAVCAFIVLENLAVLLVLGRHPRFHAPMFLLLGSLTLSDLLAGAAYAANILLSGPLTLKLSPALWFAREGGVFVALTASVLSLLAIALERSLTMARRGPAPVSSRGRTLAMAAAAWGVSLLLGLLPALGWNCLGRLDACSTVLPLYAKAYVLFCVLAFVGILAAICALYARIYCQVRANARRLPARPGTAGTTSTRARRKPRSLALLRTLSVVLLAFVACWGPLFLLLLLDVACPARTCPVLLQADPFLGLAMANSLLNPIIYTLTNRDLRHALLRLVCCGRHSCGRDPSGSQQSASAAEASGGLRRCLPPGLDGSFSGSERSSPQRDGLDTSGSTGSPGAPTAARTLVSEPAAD
T2 sequence (P32121 whole entry): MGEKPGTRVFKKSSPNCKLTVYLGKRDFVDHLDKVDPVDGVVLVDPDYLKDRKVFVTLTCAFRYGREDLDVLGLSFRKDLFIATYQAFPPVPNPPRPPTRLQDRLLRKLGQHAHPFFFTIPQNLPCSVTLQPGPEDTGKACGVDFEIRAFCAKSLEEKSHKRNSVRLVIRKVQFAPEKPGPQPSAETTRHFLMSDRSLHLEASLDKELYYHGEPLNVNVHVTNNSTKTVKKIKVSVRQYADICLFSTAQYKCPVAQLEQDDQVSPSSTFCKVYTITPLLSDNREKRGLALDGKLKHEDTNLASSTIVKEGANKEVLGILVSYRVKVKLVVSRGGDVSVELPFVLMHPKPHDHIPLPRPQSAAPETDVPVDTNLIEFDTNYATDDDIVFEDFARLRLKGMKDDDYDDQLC
T2 sequence (P21453 whole entry): as the sequence (P21453 whole entry) above
T3 sequence (P32121 whole entry): as the sequence (P32121 whole entry) above
T3 sequence (Q99500 whole entry): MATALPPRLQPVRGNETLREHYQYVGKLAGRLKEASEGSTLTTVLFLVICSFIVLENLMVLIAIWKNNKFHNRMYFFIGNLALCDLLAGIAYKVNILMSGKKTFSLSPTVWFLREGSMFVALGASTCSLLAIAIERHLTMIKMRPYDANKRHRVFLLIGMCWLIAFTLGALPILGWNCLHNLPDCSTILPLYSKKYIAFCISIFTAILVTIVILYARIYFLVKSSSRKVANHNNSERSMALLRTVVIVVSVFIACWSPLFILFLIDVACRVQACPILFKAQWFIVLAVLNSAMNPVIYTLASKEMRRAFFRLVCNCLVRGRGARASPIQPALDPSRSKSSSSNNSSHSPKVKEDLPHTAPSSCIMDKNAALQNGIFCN

Structure (SMILES): CC(C)Oc1ccc(-c2nnc(-c3cc(F)c(OC[C@@H](N)[C@H](C)O)cc3Cl)s2)cc1Cl [Entry 71, (2S,3R)-3-amino-4-{[5-chloro-4-(5-{3-chloro-4-[(1-methylethyl)oxy]phenyl}-1,3,4-thiadiazol-2-yl)-2-fluorophenyl]oxy}butan-2-ol]
- EC50 [1]: ≤ 10 nM
- EC50 (S1P1; * = rEC50 measured rather than EC50, read-out: Assay 2b rEC50 (relative EC50, cells marked *)): ≤ 10 nM
- EC50 (S1P3; read-out: Assay 5 EC50): ≤ 250 nM
- EC50 [2]: 10 to 50 nM

Structure (SMILES): CC(C)Nc1ccc(-c2nnc(-c3cc(F)c(OC[C@H](N)CO)cc3Cl)s2)cn1 [Entry 75, (2R)-2-amino-3-{[5-chloro-2-fluoro-4-(5-{6-[(1-methylethyl)amino]pyridin-3-yl}-1,3,4-thiadiazol-2-yl)phenyl]oxy}propan-1-ol]
- EC50 [1]: 250 to 2800 nM
- EC50 (S1P1; read-out: Assay 2b EC50): 10 to 50 nM
- EC50 (S1P3; read-out: Assay 5 EC50): > 10000 nM
- EC50 [2]: 250 to 2800 nM

Structure (SMILES): CC(C)Oc1ccc(-c2nnc(-c3cc(F)c(OC[C@@H](N)[C@@H](C)O)cc3Cl)s2)cc1Cl [Entry 74, (2R,3R)-3-amino-4-{[5-chloro-4-(5-{3-chloro-4-[(1-methylethyl)oxy]phenyl}-1,3,4-thiadiazol-2-yl)-2-fluorophenyl]oxy}butan-2-ol]
- EC50 [1]: ≤ 10 nM
- EC50 (S1P1; read-out: Assay 2b EC50): ≤ 10 nM
- EC50 (S1P3; read-out: Assay 5 EC50): > 250 nM
- EC50 [2]: 10 to 50 nM

Structure (SMILES): CCOc1ccc(-c2nnc(-c3cc(F)c(OC[C@H](N)CO)cc3Cl)s2)cc1Cl [Entry 25, (2R)-2-amino-3-[(5-chloro-4-{5-[3-chloro-4-(ethyloxy)phenyl]-1,3,4-thiadiazol-2-yl}-2-fluorophenyl)oxy]propan-1-ol]
- EC50 [1]: 10 to 50 nM
- EC50 (S1P1; read-out: Assay 2b EC50): 10 to 50 nM
- EC50 (S1P3; read-out: Assay 5 EC50): > 10000 nM
- EC50 [2]: 50 to 250 nM

Structure (SMILES): CC(C)Oc1ccc(-c2nnc(-c3cc(F)c(OC[C@H](N)CO)cc3Cl)s2)cc1C(F)(F)F [Entry 18, (2R)-2-amino-3-{[5-chloro-2-fluoro-4-(5-{4-[(1-methylethyl)oxy]-3-(trifluoromethyl)phenyl}-1,3,4-thiadiazol-2-yl)phenyl]oxy}propan-1-ol]
- EC50 [1]: ≤ 10 nM
- EC50 (S1P1; read-out: Assay 2b EC50): 10 to 50 nM
- EC50 (S1P3; read-out: Assay 5 EC50): > 10000 nM
- EC50 [2]: 10 to 50 nM

Structure (SMILES): CC(C)Oc1ccc(-c2nnc(-c3cc(F)c(OC[C@H](N)COP(=O)(O)O)cc3Cl)s2)cc1C#N [Entry 79, (2S)-2-amino-3-{[5-chloro-4-(5-{3-cyano-4-[(1-methylethyl)oxy]phenyl}-1,3,4-thiadiazol-2-yl)-2-fluorophenyl]oxy}propyl dihydrogen phosphate]
- EC50 [1]: ≤ 10 nM
- EC50 (S1P1; read-out: Assay 2b EC50): ≤ 10 nM
- EC50 (S1P3; read-out: Assay 5 EC50): ≤ 250 nM
- EC50 [2]: ≤ 10 nM

Structure (SMILES): Cc1cc(-c2nnc(-c3cc(F)c(OC[C@H](N)[C@H](C)O)cc3Cl)s2)cc(NC(C)C)n1 [Entry 63, (2S,3S)-3-amino-4-{[5-chloro-2-fluoro-4-(5-{2-methyl-6-[(1-methylethyl)amino]pyridin-4-yl}-1,3,4-thiadiazol-2-yl)phenyl]oxy}butan-2-ol]
- EC50 [1]: ≤ 10 nM
- EC50 (S1P1; read-out: Assay 2b EC50): 10 to 50 nM
- EC50 (S1P3; read-out: Assay 5 EC50): > 250 nM
- EC50 [2]: 10 to 50 nM

Structure (SMILES): CC(C)Oc1ccc(-c2nnc(-c3cc(F)c(OC[C@H](N)COP(=O)(O)O)cc3Cl)s2)cc1Br [Entry 29, (2S)-2-amino-3-{[4-(5-{3-bromo-4-[(1-methylethyl)oxy]phenyl}-1,3,4-thiadiazol-2-yl)-5-chloro-2-fluorophenyl]oxy}propyl dihydrogen phosphate]
- EC50 [1]: ≤ 10 nM
- EC50 (S1P1; read-out: Assay 2b EC50): ≤ 10 nM
- EC50 (S1P3; read-out: Assay 5 EC50): ≤ 250 nM
- EC50 [2]: ≤ 10 nM

Structure (SMILES): CC(C)Oc1ccc(-c2nnc(-c3cc(F)c(OCC(N)CO)cc3Cl)s2)cn1 (stereo not drawn) [Entry 19, 2-amino-3-{[5-chloro-2-fluoro-4-(5-{6-[(1-methylethyl)oxy]pyridin-3-yl}-1,3,4-thiadiazol-2-yl)phenyl]oxy}propan-1-ol]
- EC50 [1]: 50 to 250 nM
- EC50 (S1P1; read-out: Assay 2b EC50): ≤ 10 nM
- EC50 (S1P3; read-out: Assay 5 EC50): > 250 nM
- EC50 [2]: 250 to 2800 nM

Structure (SMILES): CC(C)Oc1ccc(-c2nnc(-c3cc(F)c(OC[C@@H](N)COP(=O)(O)O)cc3Cl)s2)cc1Br [Entry 12, (2R)-2-amino-3-{[4-(5-{3-bromo-4-[(1-methylethyl)oxy]phenyl}-1,3,4-thiadiazol-2-yl)-5-chloro-2-fluorophenyl]oxy}propyl dihydrogen phosphate]
- EC50 [1]: ≤ 10 nM
- EC50 (S1P1; read-out: Assay 2b EC50): ≤ 10 nM
- EC50 (S1P3; * = rEC50 measured rather than EC50, read-out: Assay 5 rEC50 (relative EC50, cells marked *)): ≤ 250 nM
- EC50 [2]: ≤ 10 nM

Structure (SMILES): CC(C)Oc1ccc(-c2nnc(-c3cc(F)c(OC[C@H](N)[C@@H](C)O)cc3Cl)s2)cc1C#N [Entry 82, 5-[5-(4-{[(2S,3R)-2-amino-3-hydroxybutyl]oxy}-2-chloro-5-fluorophenyl)-1,3,4-thiadiazol-2-yl]-2-[(1-methylethyl)oxy]benzonitrile]
- EC50 [1]: ≤ 10 nM
- EC50 (S1P1; read-out: Assay 2b EC50): ≤ 10 nM
- EC50 (S1P3; read-out: Assay 5 EC50): > 10000 nM
- EC50 [2]: 10 to 50 nM

Structure (SMILES): CC(C)Nc1ccc(-c2nnc(-c3cc(F)c(OC[C@@H](N)[C@@H](C)O)cc3Cl)s2)cn1 [Entry 68, (2R,3R)-3-amino-4-{[5-chloro-2-fluoro-4-(5-{6-[(1-methylethyl)amino]pyridin-3-yl}-1,3,4-thiadiazol-2-yl)phenyl]oxy}butan-2-ol]
- EC50 [1]: 50 to 250 nM
- EC50 (S1P1; read-out: Assay 2b EC50): ≤ 10 nM
- EC50 (S1P3; read-out: Assay 5 EC50): > 10000 nM
- EC50 [2]: 250 to 2800 nM

Structure (SMILES): Cc1cc(-c2nnc(-c3cc(F)c(OC[C@H](N)[C@H](C)O)cc3Cl)s2)ccc1OC(C)C [Entry 61, (2S,3S)-3-amino-4-{[5-chloro-2-fluoro-4-(5-{3-methyl-4-[(1-methylethyl)oxy]phenyl}-1,3,4-thiadiazol-2-yl)phenyl]oxy}butan-2-ol]
- EC50 [1]: ≤ 10 nM
- EC50 (S1P1; read-out: Assay 2b EC50): 50 to 250 nM
- EC50 (S1P3; read-out: Assay 5 EC50): > 10000 nM
- EC50 [2]: 10 to 50 nM

Structure (SMILES): CC(C)Oc1ccc(-c2nnc(-c3cc(F)c(OC[C@@H](N)CO)cc3Cl)s2)cc1Cl [Entry 10, (2S)-2-amino-3-{[5-chloro-4-(5-{3-chloro-4-[(1-methylethyl)oxy]phenyl}-1,3,4-thiadiazol-2-yl)-2-fluorophenyl]oxy}propan-1-ol]
- EC50 [1]: ≤ 10 nM
- EC50 (S1P1; read-out: Assay 2b EC50): ≤ 10 nM
- EC50 (S1P3; read-out: Assay 5 EC50): ≤ 250 nM
- EC50 [2]: 10 to 50 nM

Structure (SMILES): CC(C)N(C)c1cc(-c2nnc(-c3cc(F)c(OCC(N)CO)cc3Cl)s2)cc(Cl)n1 (stereo not drawn) [Entry 5, 2-amino-3-{[5-chloro-4-(5-{2-chloro-6-[methyl(1-methylethyl)amino]pyridin-4-yl}-1,3,4-thiadiazol-2-yl)-2-fluorophenyl]oxy}propan-1-ol]
- EC50 [1]: 10 to 50 nM
- EC50 (S1P1; read-out: Assay 2b EC50): ≤ 10 nM
- EC50 (S1P3; read-out: Assay 5 EC50): ≤ 250 nM
- EC50 [2]: 250 to 2800 nM
